Columns and labels:
foxtail, giant [1] = test: Test A preemergence; format: in vivo, Setaria faberii; conditions: preemergence; for Foxtail, Giant plant response rating (0 to 100 scale): 125 g ai/ha, visual injury approx. 10 days after treatment; for Foxtail, Giant plant response rating: 500 g ai/ha, visual injury after approx. 10 days, 0 to 100 scale (0 no effect, 100 complete control)
Method in brief: (§1)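 Growth medium: loam soil blended with sand. Preemergence treatment used a directed soil spray right after planting; postemergence treatment targeted seedlings at one to two leaves (2–10 cm height). Response was judged by eye relative to untreated plants about 10 days later on a 0–100 control scale.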

corn = test: Test A preemergence; format: in vivo, Zea mays; conditions: preemergence; for Corn plant response rating (0 to 100 scale): 125 g ai/ha, visual injury approx. 10 days after treatment; for Corn plant response rating: 500 g ai/ha, visual injury after approx. 10 days, 0 to 100 scale (0 no effect, 100 complete control)
Method in brief: as §1

barnyardgrass [2] = test: Test A postemergence; format: in vivo, Echinochloa crus-galli
Method in brief: as §1

crabgrass, large [3] = test: Test A postemergence; format: in vivo, Digitaria sanguinalis
Method in brief: as §1

foxtail, giant [4] = test: Test A postemergence; format: in vivo, Setaria faberii
Method in brief: as §1

morningglory [5] = test: Test A postemergence; format: in vivo, Ipomoea spp.; conditions: Postemergence
Method in brief: as §1

rice = test: Test B flood; format: in vivo, Oryza sativa; conditions: 250 g ai/ha, visual rating on 0 to 100 scale (0 no effect, 100 complete control), 13 to 15 days
Method in brief: (§2)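 Response scored visually, 0–100 relative to controls, 13–15 days after the compound was applied into paddy water; plants were at the 2-leaf stage in pots kept flooded to 3 cm.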

barnyardgrass [6] = test: Test B flood; format: in vivo, Echinochloa crus-galli; conditions: 250 g ai/ha, visual rating on 0 to 100 scale (0 no effect, 100 complete control), 13 to 15 days
Method in brief: as §2

morningglory [7] = test: Test C preemergence; format: in vivo, Ipomoea coccinea; conditions: preemergence; for Plant response rating, Morningglory: 125 g ai/ha, scale 0 to 100, 0 = no effect, 100 = complete control
Method in brief: (§3)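 Herbicidal effect is expressed as percent visual control (0–100) judged against untreated plants 13 to 15 days after treatment in the greenhouse. Preemergence pots contained seeds in a soil–sand blend; postemergence plants, 2–18 cm tall, grew in peat-based planting medium.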

pigweed = test: Test C preemergence; format: in vivo, Amaranthus retroflexus; conditions: preemergence; for Plant response rating, Pigweed: 125 g ai/ha, scale 0 to 100, 0 = no effect, 100 = complete control
Method in brief: as §3

barnyardgrass [8] = test: Test C preemergence; format: in vivo, Echinochloa crus-galli; conditions: preemergence; for Plant response rating, Barnyardgrass: 125 g ai/ha, scale 0 to 100, 0 = no effect, 100 = complete control
Method in brief: as §3

galium = test: Test C postemergence; format: in vivo, Galium aparine; conditions: for Plant response rating (scale of 0 to 100 where 0 is no effect and 100 is complete control), Galium: Postemergence, 31 g ai/ha, visually evaluated after 13 to 15 days; for Galium plant response rating / Plant response rating, Galium: postemergence; for Galium plant response rating: 62 g ai/ha, scale 0 to 100
Method in brief: as §3

crabgrass, large [9] = test: Test C postemergence; format: in vivo, Digitaria sanguinalis; conditions: for Plant response rating (scale of 0 to 100 where 0 is no effect and 100 is complete control), Crabgrass, Large: Postemergence, 31 g ai/ha, visually evaluated after 13 to 15 days; for Crabgrass, Large plant response rating / Plant response rating, Crabgrass, Large: postemergence; for Crabgrass, Large plant response rating: 62 g ai/ha, scale 0 to 100
Method in brief: as §3

nutsedge, yellow = test: Test C postemergence; format: in vivo, Cyperus esculentus; conditions: for Plant response rating (scale of 0 to 100 where 0 is no effect and 100 is complete control), Nutsedge, Yellow: Postemergence, 31 g ai/ha, visually evaluated after 13 to 15 days; for Nutsedge, Yellow plant response rating / Plant response rating, Nutsedge, Yellow: postemergence; for Nutsedge, Yellow plant response rating: 62 g ai/ha, scale 0 to 100
Method in brief: as §3

[10] = Postemergence, 125 g ai/ha, 0 to 100 scale, 0 no effect, 100 complete control
[11] = Postemergence, 500 g ai/ha, 0 to 100 scale (0 no effect, 100 complete control)
[12] = 125 g ai/ha, 0 to 100 scale, 0 no effect, 100 complete control
[13] = 500 g ai/ha, 0 to 100 scale (0 no effect, 100 complete control)
[14] = 31 g ai/ha, visual rating, scale 0 to 100 (0 no effect, 100 complete control), 13 to 15 days
[15] = 62 g ai/ha, scale 0 to 100 (0 no effect, 100 complete control), 13 to 15 days
[16] = 250 g ai/ha, scale 0 to 100, 0 is no effect, 100 is complete control
[17] = 250 g ai/ha, scale 0 to 100 (0 no effect, 100 complete control)
[18] = 125 g ai/ha, scale 0 to 100, 0 no effect, 100 complete control
[19] = postemergence, 125 g ai/ha, about 10 days, visual rating on 0 to 100 scale (0 no effect, 100 complete control)

SMILES	Foxtail, Giant plant response rating (0 to 100 scale) (foxtail, giant [1])	Foxtail, Giant plant response rating (foxtail, giant [1])	Corn plant response rating (0 to 100 scale) (corn)	Corn plant response rating (corn)	Barnyardgrass plant response rating (barnyardgrass [2]; [11])	Crabgrass, Large plant response rating (crabgrass, large [3]; [11])	Foxtail, Giant plant response rating (foxtail, giant [4]; [11])	Morningglory plant response rating (morningglory [5]; [12])	Morningglory plant response rating (morningglory [5]; [13])	Plant response rating, Rice (rice)	Plant response rating, Barnyardgrass (barnyardgrass [6])	Morningglory plant response rating (morningglory [7]; [14])	Morningglory plant response rating (morningglory [7]; [15])	Plant response rating, Morningglory (morningglory [7]; 13 to 15 days)	Morningglory plant response rating (morningglory [7]; [16])	Pigweed plant response rating (pigweed; [14])	Pigweed plant response rating (pigweed; [15])	Plant response rating, Pigweed (pigweed; 13 to 15 days)	Pigweed plant response rating (pigweed; [16])	Barnyardgrass plant response rating (barnyardgrass [8]; [14])	also measured
CCc1cc(C(=O)NCC(F)(F)F)nn1Cc1ccnc(SC(F)(F)F)c1 [Compound 214]	100	100	10	90	100	100	100	80	100	60	50	25	98	100	100	100	100	100	100	40	Barnyardgrass plant response rating (barnyardgrass [2]; [10]): 100; Crabgrass, Large plant response rating (crabgrass, large [3]; [10]): 100; Foxtail, Giant plant response rating (foxtail, giant [4]; [10]): 100; Barnyardgrass plant response rating (barnyardgrass [8]; [15]): 95; Plant response rating, Barnyardgrass (barnyardgrass [8]; 13 to 15 days): 100; Barnyardgrass plant response rating (barnyardgrass [8]; [16]): 100; Plant response rating (scale of 0 to 100 where 0 is no effect and 100 is complete control), Galium (galium): 75; Galium plant response rating (galium): 70; Plant response rating, Galium (galium; [17]): 90; Plant response rating, Galium (galium; [18]): 60; Plant response rating (scale of 0 to 100 where 0 is no effect and 100 is complete control), Crabgrass, Large (crabgrass, large [9]): 5; Crabgrass, Large plant response rating (crabgrass, large [9]): 5; Plant response rating, Crabgrass, Large (crabgrass, large [9]; [17]): 55; Plant response rating, Crabgrass, Large (crabgrass, large [9]; [18]): 20; Plant response rating (scale of 0 to 100 where 0 is no effect and 100 is complete control), Nutsedge, Yellow (nutsedge, yellow): 0; Nutsedge, Yellow plant response rating (nutsedge, yellow): 10; Plant response rating, Nutsedge, Yellow (nutsedge, yellow; [17]): 5; Plant response rating, Nutsedge, Yellow (nutsedge, yellow; [18]): 5
CCCNC(=O)c1cc(OCC)n(Cc2ccnc(C(F)(F)F)c2)n1 [Compound 187]	100	100	40	90	90	90	90	40	100	45	55	85	100	100	100	70	100	100	100	95	Barnyardgrass plant response rating (barnyardgrass [2]; [19]): 90; Crabgrass, Large plant response rating (crabgrass, large [3]; [19]): 90; Foxtail, Giant plant response rating (foxtail, giant [4]; [19]): 90; Barnyardgrass plant response rating (barnyardgrass [8]; [15]): 100; Plant response rating, Barnyardgrass (barnyardgrass [8]; 13 to 15 days): 100; Barnyardgrass plant response rating (barnyardgrass [8]; [16]): 100; Plant response rating (scale of 0 to 100 where 0 is no effect and 100 is complete control), Galium (galium): 60; Galium plant response rating (galium): 80; Plant response rating, Galium (galium; [17]): 90; Plant response rating, Galium (galium; [18]): 85; Plant response rating (scale of 0 to 100 where 0 is no effect and 100 is complete control), Crabgrass, Large (crabgrass, large [9]): 10; Crabgrass, Large plant response rating (crabgrass, large [9]): 20; Plant response rating, Crabgrass, Large (crabgrass, large [9]; [17]): 95; Plant response rating, Crabgrass, Large (crabgrass, large [9]; [18]): 60; Plant response rating (scale of 0 to 100 where 0 is no effect and 100 is complete control), Nutsedge, Yellow (nutsedge, yellow): 5; Nutsedge, Yellow plant response rating (nutsedge, yellow): 5; Plant response rating, Nutsedge, Yellow (nutsedge, yellow; [17]): 10; Plant response rating, Nutsedge, Yellow (nutsedge, yellow; [18]): 5

— US20150105252A1, “SUBSTITUTED PYRAZOLES AS HERBICIDES” (E I DU PONT DE NEMOURS AND COMPANY, priority 2013, published 2015)
